Serum Mg2+ level and Increase data for four compounds are collected here from ChEMBL document CHEMBL1132096, “Structure-related enhancing activity of escins Ia, Ib, IIa and IIb on magnesium absorption in mice” (1999).

The test system of experiment [1] is Mus musculus. In words: Serum Magnesium ion level in 0.5 M MgSO4 loaded ([…] p.o.) mice at a concentration of 25 mg/kg administered perorally. The class given is functional, organism-based. Details: dose 25 mg/kg.
Experiment [2] deals with Mus musculus. Put plainly: Increased Magnesium ion level in 0.5 M MgSO4 loaded ([…] p.o.) mice at a concentration of 25 mg/kg administered perorally. Format: functional. Conditions: route oral.
Experiment [3] deals with Mus musculus. Put plainly: Serum Magnesium ion level in MgSO4 unloaded mice at a concentration of 25 mg/kg administered perorally. The class given is functional, organism-based. The arrangement: dose 25 mg/kg.
Experiment [4] concerns Mus musculus. Put plainly: Increased Magnesium ion level in 0.5 M MgSO4 loaded ([…] p.o.) mice pretreatment with Insulin (1U/kg, s.c) at a concentration of 12.5 mg/kg administered perorally. Conditions: route oral. The class given is functional.
Experiment [5] concerns Mus musculus. In words: Increased Magnesium ion level in 0.5 M MgSO4 loaded ([…] p.o.) mice at a concentration of 5 mg/kg administered perorally. Format: functional. Conditions: route oral.
The subject of experiment [6] is Mus musculus. Put plainly: Increased Magnesium ion level in 1.67 M MgSO4 loaded ([…] p.o.) mice pretreatment with STZ (100 mg/kg, i.v.) at a concentration of 50 mg/kg administered perorally. The class given is functional. Conditions: route oral.
For experiment [7], the system named is Mus musculus. Put plainly: Serum Magnesium ion level in 0.5 M MgSO4 loaded ([…] p.o.) mice at a concentration of 5 mg/kg administered perorally. Details: dose 5 mg/kg. The class given is functional, organism-based.
The test system of experiment [8] is Mus musculus. Put plainly: Increased Magnesium ion level in 0.5 M MgSO4 loaded ([…] p.o.) mice at a concentration of 12.5 mg/kg administered perorally. The class given is functional. Conditions: route oral.
Experiment [9] deals with Mus musculus. In words: Serum Magnesium ion level in 1.67 M MgSO4 loaded ([…] p.o.) mice pretreatment with STZ (100 mg/kg, i.v.) at a concentration of 50 mg/kg administered perorally. The class given is functional, organism-based. The arrangement: dose 50 mg/kg.
Experiment [10] deals with Mus musculus. Put plainly: Increased Magnesium ion level in 1.67 M MgSO4 loaded ([…] p.o.) mice at a concentration of 50 mg/kg administered perorally. Format: functional. Conditions: route oral.
Experiment [11] has as its system Mus musculus. In words: Serum Magnesium ion level in 1.67 M MgSO4 loaded ([…] p.o.) mice at a concentration of 50 mg/kg administered perorally. The class given is functional, organism-based. Details: dose 50 mg/kg.
In experiment [12] the test system is Mus musculus. In words: Serum Magnesium ion level in 0.5 M MgSO4 loaded ([…] p.o.) mice pretreatment with Insulin (1U/kg, s.c) at a concentration of 12.5 mg/kg administered perorally. The arrangement: dose 12.5 mg/kg. The class given is functional, organism-based.
Experiment [13] concerns Mus musculus. Put plainly: Serum Magnesium ion level in 0.5 M MgSO4 loaded ([…] p.o.) mice at a concentration of 12.5 mg/kg administered perorally. Format: functional, organism-based. The arrangement: dose 12.5 mg/kg.
For experiment [14], the system named is Mus musculus. Put plainly: Increased Magnesium ion level in 0.5 M MgSO4 loaded ([…]) mice pretreatment with Indomethacin (10 mg/kg, s.c) at a concentration of 12.5 mg/kg administered perorally. The class given is functional. Conditions: route oral.
For experiment [15], the system named is Mus musculus. Put plainly: Serum Magnesium ion level in 0.5 M MgSO4 loaded ([…] p.o.) mice pretreatment with Indomethacin (10 mg/kg, s.c) at a concentration of 12.5 mg/kg administered perorally. The class given is functional, organism-based. The arrangement: dose 12.5 mg/kg.
The subject of experiment [16] is Mus musculus. In words: Serum Magnesium ion level in 0.5 M MgSO4 loaded ([…] p.o.) mice at a concentration of 25 mg/kg administered perorally. Details: dose 25 mg/kg. The class given is functional, organism-based.

The compound `CC1(C)CC2C3=CCC4[C@@]5(C)CC[C@H](O[C@@H]6OC(C(=O)O)C(O[C@@H]7OC(CO)C(O)[C@@H](O)[C@@H]7O)[C@@H](O)[C@@H]6O[C@@H]6OCC(O)[C@@H](O)[C@@H]6O)[C@](C)(CO)C5CC[C@@]4(C)[C@]3(C)C[C@@H](O)[C@@]2(CO)[C@@H](O)[C@@H]1O` (stereo partly specified) showed a Serum Mg2+ level in the experiment with Mus musculus [1] of 3.4. In addition, the Increase in the experiment with Mus musculus [2] amounted to 3%.
As to `C/C=C(/C)C(=O)O[C@H]1[C@H](OC(C)=O)[C@@]2(CO)C(CC1(C)C)C1=CCC3[C@@]4(C)CC[C@H](O[C@@H]5OC(C(=O)O)C(O[C@@H]6OC(CO)C(O)[C@@H](O)[C@@H]6O)[C@@H](O)[C@@H]5O[C@@H]5OC(CO)C(O)[C@@H](O)[C@@H]5O)[C@](C)(CO)C4CC[C@@]3(C)[C@]1(C)C[C@H]2O` (stereo partly specified), the Serum Mg2+ level in the experiment with Mus musculus [3] was found to be 3.1; in the experiment on Mus musculus [1], 4.1; in the experiment on Mus musculus [7], 3.7; with Mus musculus [9], 6.3; with Mus musculus [11] it was 7.9; in the experiment with Mus musculus [12], 5.1. Further, the Serum Mg2+ level in the experiment on Mus musculus [13] worked out at 3.9; with Mus musculus [15] it was 4.3. Besides, the Increase in the experiment with Mus musculus [4] is on record as 30.8%; in the experiment with Mus musculus [5] it was 12.1%; in the experiment with Mus musculus [6], 26%; in the experiment on Mus musculus [8] it was 18.2%; in the experiment on Mus musculus [10] it was 38.6%; in the experiment with Mus musculus [2] it was 24.2%. Also, in the experiment with Mus musculus [14], the Increase was 34.4%.
Regarding `C/C=C(\C)C(=O)O[C@H]1[C@H](OC(C)=O)[C@@]2(CO)C(CC1(C)C)C1=CCC3[C@@]4(C)CC[C@H](O[C@@H]5O[C@H](C(=O)O)[C@@H](O[C@@H]6O[C@H](CO)[C@@H](O)[C@H](O)[C@H]6O)[C@H](O)[C@H]5O[C@@H]5OC[C@@H](O)[C@H](O)[C@H]5O)[C@](C)(CO)C4CC[C@@]3(C)[C@]1(C)C[C@H]2O` (stereo partly specified) [AESCIN], the Serum Mg2+ level was 3.1 with Mus musculus [3], 3.6 with Mus musculus [1], 3 in the experiment on Mus musculus [7] and 3.1 with Mus musculus [13]. Moreover, the Increase is reported as -6.3% with Mus musculus [5], -3.1% in the experiment on Mus musculus [8] and 12.5% with Mus musculus [2].
For `C/C=C(\C)C(=O)O[C@H]1[C@H](OC(C)=O)[C@@]2(CO)C(CC1(C)C)C1=CCC3[C@@]4(C)CC[C@H](O[C@@H]5OC(C(=O)O)C(O[C@@H]6OC(CO)C(O)[C@@H](O)[C@@H]6O)[C@@H](O)[C@@H]5O[C@@H]5OC(CO)C(O)[C@@H](O)[C@@H]5O)[C@](C)(CO)C4CC[C@@]3(C)[C@]1(C)C[C@H]2O` (stereo partly specified), the Serum Mg2+ level stood at 3.1 in the experiment with Mus musculus [3], 3.6 in the experiment with Mus musculus [16], 3.6 in the experiment with Mus musculus [7] and 3.3 in the experiment on Mus musculus [13]. Besides, the values for the Increase in the experiment with Mus musculus [5], in the experiment on Mus musculus [8] and with Mus musculus [2] were 9.1%, 0% and 9.1%, respectively.
